Measured values: patent publication US11000033B2, “Ketone or oxime compound, and herbicide” (NISSAN CHEMICAL CORPORATION, priority 2014, dated 2021)

How the values were obtained:
Type in all cases: in vivo
[1] = test system: Echinochloa oryzacola Vasing.; test: Test Example 1: herbicidal activity, application before weed generation in submerged conditions (symbol A); details: application herbicide amount 320 g/ha
In short: (§1)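 Steps: alluvial soil flooded to 4 cm; weed seeds sown together; rice seedlings (2.5 leaf) transplanted; diluted emulsion applied to water surface the same day as sowing; plants grown at 25–30 °C in greenhouse; herbicidal effect rated on a 0–5 scale at 3 weeks.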

Digitaria ciliaris = test: Test Example 4: herbicidal effect by soil treatment (symbol F); details: for F: Digitaria ciliaris, herbicidal effect grade: 320 g/ha
In short: (§2)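 Seeds were sown in sterilized diluvial soil, covered with about 1.5 cm of soil, and the soil surface was sprayed with a water-diluted emulsion of the compound at a predetermined rate. Plants grew in a greenhouse at 25° C. to 30° C.; effects were scored visually 3 weeks after application.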

Galium spurium = test: Test Example 5: herbicidal effect by foliage application, plastic box (symbol Q); details: 320 g/ha, 3 weeks after application
In short: (§3)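 Herbicide, formulated as an emulsion and diluted in water, is sprayed onto the aerial parts of 14-day seedlings. These were grown at 25° C. to 30° C. in sterilized diluvial soil; effects are graded after 3 weeks.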

Avena fatua = test: Test Example 5: herbicidal effect by foliage application, plastic box (symbol I); details: 320 g/ha, 3 weeks after application
In short: as §3

[2] = test system: directly sowed rice plant; test: Test Example 3: effect on crop by foliage application, Wagner pot (symbol b); details: application herbicide amount 320 g/ha
In short: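 Greenhouse culture at 25–30 °C of seeded rice, Cyperus difformis, Leptochloa chinensis and Echinochloa crus-galli var. crus-galli, in alluvial soil held under 0.1–0.5 cm of water in a Wagner pot.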

Amaranthus retroflexus [3] = test: Test Example 4: herbicidal effect by soil treatment (symbol N); details: for N: Amaranthus retroflexus, herbicidal effect grade: 320 g/ha
In short: as §2

Alopecurus myosuroides = test: Test Example 5: herbicidal effect by foliage application, plastic box (symbol J); details: 320 g/ha, 3 weeks after application
In short: as §3

Amaranthus retroflexus [4] = test: Test Example 5: herbicidal effect by foliage application, plastic box (symbol N); details: 320 g/ha, 3 weeks after application
In short: as §3

Monochoria vaginalis [5] = test: Test Example 2: herbicidal activity, application during weed generation in submerged conditions (symbol C); details: Table 23; application herbicide amount 320 g/ha; grade 0-5 by criteria of Test Example 1
In short: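 Scoring of herbicidal effect took place 3 weeks after treatment, using the criteria of the earlier test. Treatment was water-surface application of diluted emulsifiable compound at a set dose. Plants were at one- to two-leaf stage in submerged alluvial soil (4 cm depth), greenhouse 25-30° C.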

[6] = test system: Echinochloa crus-galli var. crus-galli; test: Test Example 5: herbicidal effect by foliage application, plastic box (symbol H); details: 320 g/ha, 3 weeks after application
In short: as §3

Monochoria vaginalis [7] = test: Test Example 1: herbicidal activity, application before weed generation in submerged conditions (symbol C); details: application herbicide amount 320 g/ha
In short: as §1

Cyperus difformis = test: Test Example 3: herbicidal effect by foliage application, Wagner pot (symbol E); details: application herbicide amount 320 g/ha
In short: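 Foliar spray of a water-diluted emulsion at a predetermined herbicide amount, applied to 14-day-old plants. Seedlings were raised in flooded alluvial soil (0.1–0.5 cm water) at 25–30 °C in a greenhouse. Injury was rated after 3 weeks against fixed criteria.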

rapeseed = test: Test Example 4: effect on crop by soil treatment (symbol g); details: for g: rapeseed, effect grade on crop: 320 g/ha
In short: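 Crop seed is sown in spots together with several weed species in a box of sterilized diluvial soil. It is covered by about 1.5 cm of soil and kept in a greenhouse held between 25° C. and 30° C.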

Apera spica-venti = test: Test Example 4: herbicidal effect by soil treatment (symbol L); details: for L: Apera spica-venti, herbicidal effect grade: 320 g/ha
In short: as §2

[8] = application herbicide amount 320 g/ha

Structure (SMILES)	Herbicidal effect grade, A: Echinochloa oryzacola Vasing. [1]	F: Digitaria ciliaris, herbicidal effect grade (Digitaria ciliaris)	Q: Galium spurium, herbicidal effect (criteria 0-5) (Galium spurium)	I: Avena fatua, herbicidal effect (criteria 0-5) (Avena fatua)	effect on crop b (directly sowed rice plant), grade 0-5 [2]	N: Amaranthus retroflexus, herbicidal effect grade (Amaranthus retroflexus [3])	J: Alopecurus myosuroides, herbicidal effect (criteria 0-5) (Alopecurus myosuroides)	N: Amaranthus retroflexus, herbicidal effect (criteria 0-5) (Amaranthus retroflexus [4])	Herbicidal effect grade, C: Monochoria vaginalis (Monochoria vaginalis [5])	H: Echinochloa crus-galli var. crus-galli, herbicidal effect (criteria 0-5) [6]	Herbicidal effect grade, C: Monochoria vaginalis (Monochoria vaginalis [7])	herbicidal effect on E, grade 0-5 (Cyperus difformis)	g: rapeseed, effect grade on crop (rapeseed)	L: Apera spica-venti, herbicidal effect grade (Apera spica-venti)	also measured
CON=C(C)CC1CC(OC(=O)COc2ccc(I)cc2)=C(c2c(C)cc(C)cc2C)C1=O (centres unmarked) [1-082]	5 (Herbicidal ratio of 90% or more (almost completely withered))	5 (Herbicidal ratio of 90% or more (almost completely withered))	0 (Herbicidal ratio of 5% or lower (almost no effect))	5 (Herbicidal ratio of 90% or more (almost completely withered))	5 (Herbicidal ratio of 90% or more (almost completely withered))	5 (Herbicidal ratio of 90% or more (almost completely withered))	5 (Herbicidal ratio of 90% or more (almost completely withered))	0 (Herbicidal ratio of 5% or lower (almost no effect))	3 (Herbicidal ratio of 40% or higher and lower than 70%)	5 (Herbicidal ratio of 90% or more (almost completely withered))	2 (Herbicidal ratio of 20% or higher and lower than 40%)	5 (Herbicidal ratio of 90% or more (almost completely withered))	4 (Herbicidal ratio of 70% or higher and lower than 90%)	5 (Herbicidal ratio of 90% or more (almost completely withered))	
COCC(=O)OC1=C(c2c(C)cc(C)cc2C)C(=O)C(CC(C)=NOC)C1 (centres unmarked) [1-093]	5 (Herbicidal ratio of 90% or more (almost completely withered))	5 (Herbicidal ratio of 90% or more (almost completely withered))	0 (Herbicidal ratio of 5% or lower (almost no effect))	5 (Herbicidal ratio of 90% or more (almost completely withered))	5 (Herbicidal ratio of 90% or more (almost completely withered))	3 (Herbicidal ratio of 40% or higher and lower than 70%)	5 (Herbicidal ratio of 90% or more (almost completely withered))	4 (Herbicidal ratio of 70% or higher and lower than 90%)	3 (Herbicidal ratio of 40% or higher and lower than 70%)	5 (Herbicidal ratio of 90% or more (almost completely withered))	2 (Herbicidal ratio of 20% or higher and lower than 40%)	5 (Herbicidal ratio of 90% or more (almost completely withered))	4 (Herbicidal ratio of 70% or higher and lower than 90%)	5 (Herbicidal ratio of 90% or more (almost completely withered))	
CON=C(C)CC1CC(OC(=O)COCc2ccccc2)=C(c2c(C)cc(C)cc2C)C1=O (centres unmarked) [1-094]	5 (Herbicidal ratio of 90% or more (almost completely withered))	5 (Herbicidal ratio of 90% or more (almost completely withered))	0 (Herbicidal ratio of 5% or lower (almost no effect))	5 (Herbicidal ratio of 90% or more (almost completely withered))	5 (Herbicidal ratio of 90% or more (almost completely withered))	4 (Herbicidal ratio of 70% or higher and lower than 90%)	5 (Herbicidal ratio of 90% or more (almost completely withered))	2 (Herbicidal ratio of 20% or higher and lower than 40%)	4 (Herbicidal ratio of 70% or higher and lower than 90%)	5 (Herbicidal ratio of 90% or more (almost completely withered))	1 (Herbicidal ratio of 5% or higher and lower than 20%)	4 (Herbicidal ratio of 70% or higher and lower than 90%)	4 (Herbicidal ratio of 70% or higher and lower than 90%)	5 (Herbicidal ratio of 90% or more (almost completely withered))	
CON=CC(C)(C)C1CC(O)=C(c2c(C)cc(C)cc2C)C1=O (centres unmarked) [1-030]	2 (Herbicidal ratio of 20% or higher and lower than 40%)				5 (Herbicidal ratio of 90% or more (almost completely withered))				0 (Herbicidal ratio of 5% or lower (almost no effect))		0 (Herbicidal ratio of 5% or lower (almost no effect))	3 (Herbicidal ratio of 40% or higher and lower than 70%)			F (Digitaria ciliaris) herbicidal effect grade (Digitaria ciliaris; [8]): 3 (Herbicidal ratio of 40% or higher and lower than 70%); Q: Galium spurium, herbicidal effect grade (Galium spurium): 0 (Herbicidal ratio of 5% or lower (almost no effect)); I: Avena fatua, herbicidal effect grade (Avena fatua): 3 (Herbicidal ratio of 40% or higher and lower than 70%); N (Amaranthus retroflexus) herbicidal effect grade (Amaranthus retroflexus [3]; [8]): 0 (Herbicidal ratio of 5% or lower (almost no effect)); J: Alopecurus myosuroides, herbicidal effect grade (Alopecurus myosuroides): 4 (Herbicidal ratio of 70% or higher and lower than 90%); N: Amaranthus retroflexus, herbicidal effect grade (Amaranthus retroflexus [4]): 0 (Herbicidal ratio of 5% or lower (almost no effect)); H: Echinochloa crus-galli var. crus-galli, herbicidal effect grade [6]: 4 (Herbicidal ratio of 70% or higher and lower than 90%); g (rapeseed) effect on crop grade (rapeseed; [8]): 0 (Herbicidal ratio of 5% or lower (almost no effect)); L (Apera spica-venti) herbicidal effect grade (Apera spica-venti; [8]): 3 (Herbicidal ratio of 40% or higher and lower than 70%)
